Data on 4 compounds can be found in ChEMBL document CHEMBL1135457 (J Med Chem, 2002).

One assay addresses Estrogen receptor beta (Homo sapiens, UniProt Q92731). Put plainly: Displacement of radioligand from human Estrogen receptor beta, percent inhibition at 10 uM.
In assay [1] the target is T1, Estrogen receptor (Homo sapiens) (UniProt P03372).
T1 sequence (whole entry): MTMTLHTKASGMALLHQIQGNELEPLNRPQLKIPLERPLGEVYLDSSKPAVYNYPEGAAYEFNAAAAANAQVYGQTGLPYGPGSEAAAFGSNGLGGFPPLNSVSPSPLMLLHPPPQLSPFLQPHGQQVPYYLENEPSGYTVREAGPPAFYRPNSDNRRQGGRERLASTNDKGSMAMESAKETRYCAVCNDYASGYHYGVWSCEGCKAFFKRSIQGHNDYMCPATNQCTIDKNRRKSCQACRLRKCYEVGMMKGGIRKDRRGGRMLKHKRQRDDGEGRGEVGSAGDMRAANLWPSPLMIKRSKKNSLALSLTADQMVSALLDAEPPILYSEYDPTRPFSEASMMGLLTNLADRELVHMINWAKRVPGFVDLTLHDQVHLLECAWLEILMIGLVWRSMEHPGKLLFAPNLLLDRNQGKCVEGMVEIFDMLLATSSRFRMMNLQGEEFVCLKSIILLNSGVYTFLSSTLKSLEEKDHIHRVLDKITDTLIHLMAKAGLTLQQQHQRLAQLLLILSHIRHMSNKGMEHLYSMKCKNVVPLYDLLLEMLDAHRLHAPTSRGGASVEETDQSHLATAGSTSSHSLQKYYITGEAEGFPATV
Kind of assay: Displacement of radioligand from human Estrogen receptor alpha, percent inhibition at 10 uM.

Another assay deals with T2, Progesterone receptor (Homo sapiens, UniProt P06401).
T2 sequence (P06401 whole entry): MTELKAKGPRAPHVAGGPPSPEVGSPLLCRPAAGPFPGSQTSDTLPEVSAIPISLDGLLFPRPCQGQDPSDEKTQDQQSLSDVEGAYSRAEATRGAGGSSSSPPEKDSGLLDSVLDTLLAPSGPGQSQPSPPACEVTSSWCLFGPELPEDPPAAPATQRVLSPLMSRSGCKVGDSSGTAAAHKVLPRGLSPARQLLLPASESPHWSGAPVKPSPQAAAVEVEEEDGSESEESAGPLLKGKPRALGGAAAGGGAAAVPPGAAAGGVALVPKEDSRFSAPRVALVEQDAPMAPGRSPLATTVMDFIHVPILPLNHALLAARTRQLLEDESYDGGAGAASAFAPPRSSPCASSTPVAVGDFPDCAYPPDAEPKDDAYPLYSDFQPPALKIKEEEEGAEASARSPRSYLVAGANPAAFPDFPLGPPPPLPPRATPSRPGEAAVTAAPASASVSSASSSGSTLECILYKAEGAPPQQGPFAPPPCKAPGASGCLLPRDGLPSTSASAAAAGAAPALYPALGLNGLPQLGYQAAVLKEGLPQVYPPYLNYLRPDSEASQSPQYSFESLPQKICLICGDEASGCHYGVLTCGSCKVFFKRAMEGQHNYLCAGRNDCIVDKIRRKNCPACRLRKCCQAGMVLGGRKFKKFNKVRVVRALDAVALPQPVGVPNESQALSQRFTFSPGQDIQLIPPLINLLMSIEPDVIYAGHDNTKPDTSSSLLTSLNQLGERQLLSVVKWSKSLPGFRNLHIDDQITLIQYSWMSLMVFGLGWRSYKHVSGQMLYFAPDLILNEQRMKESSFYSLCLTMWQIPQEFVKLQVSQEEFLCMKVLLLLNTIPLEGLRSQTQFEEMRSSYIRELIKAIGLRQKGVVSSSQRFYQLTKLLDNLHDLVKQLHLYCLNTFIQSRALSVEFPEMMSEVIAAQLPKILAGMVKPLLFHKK
Put plainly: Displacement of radioligand from human Progesterone receptor.

The target of another assay is T3, Androgen receptor (Homo sapiens, UniProt P10275).
T3 sequence (P10275 whole entry): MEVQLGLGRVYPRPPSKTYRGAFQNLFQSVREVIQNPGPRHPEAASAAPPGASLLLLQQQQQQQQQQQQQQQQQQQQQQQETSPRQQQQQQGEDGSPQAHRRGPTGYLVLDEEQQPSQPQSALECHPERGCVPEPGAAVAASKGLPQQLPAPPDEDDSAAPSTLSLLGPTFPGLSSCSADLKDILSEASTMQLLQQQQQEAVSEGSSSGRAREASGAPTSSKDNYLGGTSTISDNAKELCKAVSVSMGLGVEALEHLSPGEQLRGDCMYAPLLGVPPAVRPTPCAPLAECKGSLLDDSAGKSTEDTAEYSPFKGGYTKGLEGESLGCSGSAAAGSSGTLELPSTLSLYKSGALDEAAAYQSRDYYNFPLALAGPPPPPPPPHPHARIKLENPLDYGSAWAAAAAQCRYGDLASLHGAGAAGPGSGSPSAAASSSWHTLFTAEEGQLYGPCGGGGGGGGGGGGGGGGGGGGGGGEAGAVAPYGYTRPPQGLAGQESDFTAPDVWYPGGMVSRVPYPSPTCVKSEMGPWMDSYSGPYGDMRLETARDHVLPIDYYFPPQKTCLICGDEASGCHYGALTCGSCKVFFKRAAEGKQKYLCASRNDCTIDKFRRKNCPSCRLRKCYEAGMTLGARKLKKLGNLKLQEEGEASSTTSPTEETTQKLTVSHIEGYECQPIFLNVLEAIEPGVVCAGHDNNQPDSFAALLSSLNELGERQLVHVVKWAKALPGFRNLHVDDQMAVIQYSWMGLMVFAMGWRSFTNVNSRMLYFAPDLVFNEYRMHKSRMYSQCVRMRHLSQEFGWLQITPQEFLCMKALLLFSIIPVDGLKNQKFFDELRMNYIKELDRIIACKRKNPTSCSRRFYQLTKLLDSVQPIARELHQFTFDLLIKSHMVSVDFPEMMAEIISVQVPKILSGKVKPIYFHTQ
Kind of assay: Displacement of [3H]DHT from human Androgen receptor. (In general: Displacement assays read how much labelled ligand stays bound in the presence of the test substance.)

The inhibition is how much of the control response was suppressed. Low values mean a response near the control, high ones a response far below the control. Usually Ki stands for a measure of affinity in units of concentration, obtained from inhibition or displacement. Lower therefore signals tighter binding.

Where only a bound is given, the exact number is not on record here.

Estrogen receptor beta, sequence (Q92731 whole entry): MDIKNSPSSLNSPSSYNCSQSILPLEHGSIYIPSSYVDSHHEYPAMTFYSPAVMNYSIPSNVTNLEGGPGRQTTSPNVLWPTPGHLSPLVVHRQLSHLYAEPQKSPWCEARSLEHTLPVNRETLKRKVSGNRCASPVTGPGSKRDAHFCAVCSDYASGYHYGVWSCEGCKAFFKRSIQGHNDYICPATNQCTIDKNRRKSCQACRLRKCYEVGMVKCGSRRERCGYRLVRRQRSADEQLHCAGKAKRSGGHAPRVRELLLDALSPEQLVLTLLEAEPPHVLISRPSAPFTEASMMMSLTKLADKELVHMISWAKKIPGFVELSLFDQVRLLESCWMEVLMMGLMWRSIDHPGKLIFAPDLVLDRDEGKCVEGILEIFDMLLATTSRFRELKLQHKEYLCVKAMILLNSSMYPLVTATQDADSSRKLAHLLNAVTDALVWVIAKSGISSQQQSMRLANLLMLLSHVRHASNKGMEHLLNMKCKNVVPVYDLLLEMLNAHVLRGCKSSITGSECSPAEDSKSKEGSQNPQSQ

For `CC#C[C@@]1(O)CC[C@@]2(Cc3ccccc3)c3ccc(O)cc3CC[C@@H]2C1`, the inhibition on Estrogen receptor beta is 57%; in assay [1] it was 50%. The compound further returned a Ki on Progesterone receptor of more than 10000 nM.

Consider `O=C1CC[C@@]2(Cc3ccccc3)c3ccc(O)cc3CC[C@@H]2C1`, for which the Ki at Androgen receptor is 1300 nM; on Progesterone receptor, more than 10000 nM. Moreover, the inhibition at Estrogen receptor beta was found to be 54%; in assay [1], 45%.

For `Oc1ccc2c(c1)CC[C@@H]1C[C@@](O)(C#CCl)CC[C@@]21Cc1ccccc1`, the values for the Ki on Androgen receptor and at Progesterone receptor were 130 nM and more than 10000 nM, respectively. In addition, the inhibition is 75% at Estrogen receptor beta and 62% in assay [1].

Compound `CC#C[C@]1(O)CCC2C3CCC4=CC(=O)CC[C@]4(Cc4ccc(C)cc4)C3=CC[C@@]21C` (stereo partly drawn) yielded a Ki on Androgen receptor of 90 nM. In assay [1], the inhibition amounted to 20%.
